According to patent US20220088231A1, “RADIOIMMUNOCONJUGATES AND DNA DAMAGE AND REPAIR INHIBITOR COMBINATION THERAPY” (Fusion Pharmaceuticals Inc., priority 2018, published 2022):
“Also recorded” adds a separate entry of the source.

Tests used:
[1] = Animal tolerability observation during BAY-1895344 dosing in the Colo-205 xenograft study; type: in vivo; conditions: Example 2: BAY-1895344 three times a week starting with 40 mg/kg, dose gradually reduced to 20 mg/kg
[2] = test system: y-H2AX foci (DSB formation); test: Immunohistochemical analysis of y-H2AX foci after olaparib treatment in xenograft models; type: in vivo; conditions: Example 3: after olaparib treatment, i.p. 10-100 mg/kg; Colo-205 and A549 xenograft models
Experimental: An in vivo efficacy study was conducted with olaparib alone as a single agent. Olaparib was given as a single agent at different doses in a Colo-205 (colorectal cancer) xenograft model and in an A549 (NSCLC) xenograft model. Groups of animals (n=5) were dosed with olaparib (i.p.) 5 days on, 2 days off using 10-100 mg/kg doses.

[3] = test system: Colo-205 (colorectal cancer) xenograft model; test: In vivo efficacy/synergy study, relative tumor volume in Colo-205 xenograft model; conditions: for Relative tumor volume: 5 days on
Experimental: (§1) An in vivo efficacy study was conducted with olaparib alone as a single agent. […] Groups of animals (n=5) were dosed with olaparib (i.p.) 5 days on, 2 days off using 10-100 mg/kg doses.
(§2) Combination groups (n=5) were dosed with olaparib (i.p.) 5 days on, 2 days off, using a 50 mg/kg dose for 28 days.

[4] = test system: A549 (NSCLC) xenograft model; test: In vivo efficacy/synergy study, relative tumor volume in A549 xenograft model
Experimental: as §1, §2

Q: Which Animal somnolence [1] does the source give for `C[C@@H]1COCCN1c1cc(-c2ccnn2C)c2ccnc(-c3ccn[nH]3)c2n1` [BAY-1895344] here?
A: transient animal somnolence at the higher doses

Q: For `O=C(c1cc(Cc2n[nH]c(=O)c3ccccc23)ccc1F)N1CCN(C(=O)C2CC2)CC1` [olaparib], which “DSB formation by immunohistochemical analysis of y-H2AX foci” value [2] is on record?
A: no increase in DSB formation

Q: And the “Relative tumor volume (single agent efficacy)” value ([3]; Example 3: olaparib i.p. 5 days on, 2 days off, 10-100 mg/kg doses (FIG. 6A))?
A: modest efficacy as a single agent; also recorded: did not appear to be a dose response

Q: What about the Relative tumor volume ([3]; Example 4, dosing schedule 1 (FIG. 7): [225Ac]-FPI-1434 50 nCi, olaparib i.p. 50 mg/kg, 2 days off for 28 days, pre-dosed 3 times prior to [225Ac]-FPI-1434, up to 28 days) of the same compound?
A: demonstrated some reduction in tumor volume over time

Q: What about the Relative tumor volume ([3]; Example 5, dosing schedule 2 (FIG. 9): [225Ac]-FPI-1434 50 nCi, olaparib i.p. 50 mg/kg, 2 days off for 28 days, first dose 24 hours after FPI-1434, up to 28 days) of the same compound?
A: demonstrated significant reduction in tumor volume overtime

Q: And the Relative tumor volume ([3]; Example 6 (FIG. 12): lower effective doses, [225Ac]-FPI-1434 20 nCi and olaparib 25 mg/kg i.p., 2 days off from 24 hours after until day 30)?
A: no or limited therapeutic effect

Q: What about the “Relative tumor volume (single agent efficacy)” value ([4]; Example 3: olaparib i.p. 5 days on, 2 days off, 10-100 mg/kg doses (FIG. 6B)) of the same compound?
A: modest efficacy as a single agent; also recorded: did not appear to be a dose response

Q: What about the Relative tumor volume ([4]; Example 4, dosing schedule 1 (FIG. 7): [225Ac]-FPI-1434 200 nCi, olaparib i.p. 50 mg/kg, 5 days on, 2 days off for 28 days, pre-dosed 3 times prior to [225Ac]-FPI-1434, up to 28 days) of the same compound?
A: no apparent difference in tumor volume over time
